± gives the expanded uncertainty stated by the source.
Assay: activity coefficient (dimensionless); of the first substance listed, at infinite dilution; xn = mol fraction of the nth substance listed
Settings: 100 kPa, Liquid, Chromatography, x1 = 0

SMILES	activity coefficient (308.15 K)	activity coefficient (318.15 K)	activity coefficient (328.15 K)	activity coefficient (338.15 K)	activity coefficient (348.15 K)	activity coefficient (358.15 K)	activity coefficient (368.15 K)
CC(C)O [propan-2-ol] + CCCC[n+]1ccc(C#N)cc1.O=S(=O)([N-]S(=O)(=O)C(F)(F)F)C(F)(F)F	2.25 ± 0.19	2.08 ± 0.18	1.95 ± 0.17	1.83 ± 0.16	1.73 ± 0.15	1.63 ± 0.14	–
CCCc1ccccc1 [propylbenzene] + CCCC[n+]1ccc(C#N)cc1.O=S(=O)([N-]S(=O)(=O)C(F)(F)F)C(F)(F)F	3.8 ± 0.33	3.94 ± 0.34	4.07 ± 0.35	4.21 ± 0.36	4.33 ± 0.37	4.45 ± 0.38	4.58 ± 0.4
c1ccncc1 [pyridine] + CCCC[n+]1ccc(C#N)cc1.O=S(=O)([N-]S(=O)(=O)C(F)(F)F)C(F)(F)F	0.47 ± 0.044	0.5 ± 0.046	0.53 ± 0.048	0.56 ± 0.05	0.591 ± 0.052	0.62 ± 0.054	0.65 ± 0.056
C=Cc1ccccc1 [styrene] + CCCC[n+]1ccc(C#N)cc1.O=S(=O)([N-]S(=O)(=O)C(F)(F)F)C(F)(F)F	1.28 ± 0.11	1.36 ± 0.11	1.44 ± 0.12	1.52 ± 0.13	1.6 ± 0.14	1.67 ± 0.14	1.75 ± 0.15
C1CCOC1 [tetrahydrofuran] + CCCC[n+]1ccc(C#N)cc1.O=S(=O)([N-]S(=O)(=O)C(F)(F)F)C(F)(F)F	0.622 ± 0.054	0.661 ± 0.057	0.701 ± 0.06	0.742 ± 0.063	0.779 ± 0.065	0.818 ± 0.068	0.858 ± 0.071
c1ccsc1 [thiophene] + CCCC[n+]1ccc(C#N)cc1.O=S(=O)([N-]S(=O)(=O)C(F)(F)F)C(F)(F)F	0.916 ± 0.076	0.96 ± 0.08	1 ± 0.08	1.05 ± 0.09	1.1 ± 0.09	1.14 ± 0.09	1.18 ± 0.1
Cc1ccccc1 [toluene] + CCCC[n+]1ccc(C#N)cc1.O=S(=O)([N-]S(=O)(=O)C(F)(F)F)C(F)(F)F	1.46 ± 0.12	1.54 ± 0.13	1.62 ± 0.14	1.7 ± 0.14	1.78 ± 0.15	1.86 ± 0.16	1.94 ± 0.17
O [water] + CCCC[n+]1ccc(C#N)cc1.O=S(=O)([N-]S(=O)(=O)C(F)(F)F)C(F)(F)F	3.31 ± 0.29	3.01 ± 0.26	2.74 ± 0.24	2.52 ± 0.22	2.33 ± 0.2	2.16 ± 0.19	2 ± 0.17

Reference: the NIST ThermoML archive (doi:10.1016/j.jct.2016.01.017)
